Results on six compounds are retold here after patent US20060069132A1, “Azolecarboxamide herbicides” (priority 2004, published 2006).

Read-outs that look alike come from different tables or passages of the source.

One experiment has as its system ducksalad. Put plainly: Test B flooded paddy test. The conditions noted are these: 1000 g ai/ha, scale 0 to 100 (0 no effect, 100 complete control); for pest or weed control at 1000 g/ha: Heteranthera limosa, 336 h, read-out: Ducksalad plant response rating. Format: in vivo, Heteranthera limosa. A digest of the protocol: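 Paddy species grown to the 2-leaf stage under flooding; blackgrass sprayed postemergence at 2–18 cm (1- to 4-leaf stage). Plants kept in a greenhouse for 13 to 15 days, then visually rated against controls on 0 (no effect) to 100 (complete control).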

A further experiment deals with barnyardgrass. The experiment in a line: Test B pre-/postemergence herbicide test. Format: in vivo, Echinochloa crus-galli. The conditions noted are these: for pest or weed control at 125 g/ha / pest or weed control at 500 g/ha: Echinochloa crus-galli. Summed up: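 Test chemicals in a non-phytotoxic solvent mixture with surfactant were applied preemergence to seeded species and postemergence to plants 2-18 cm tall (1- to 4-leaf stage); rice and barnyardgrass were also tested in a flooded paddy at the 2-leaf stage. Visual rating versus controls after 13-15 days in greenhouse, scale 0 (no effect) to 100 (complete control).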

The subject of a further experiment is giant foxtail. The experiment in a line: Test A pre-/postemergence herbicide test. Format: in vivo, Setaria faberi. The conditions noted are these: for pest or weed control at 500 g/ha / pest or weed control at 2000 g/ha: Setaria faberi, 240 h. Summed up: (§1)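 Sandy loam soil given preemergence directed spray; plants at 2 to 10 cm, one- to two-leaf stage, sprayed to runoff postemergence, compounds in non-phytotoxic solvent with surfactant. Injury rated visually versus untreated controls after about ten greenhouse days, 0 (no effect) to 100 (complete control); dash means not tested.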

Another experiment deals with redroot pigweed. Put plainly: Test A pre-/postemergence herbicide test. Format: in vivo, Amaranthus retroflexus. The conditions noted are these: for pest or weed control at 500 g/ha / pest or weed control at 2000 g/ha: Amaranthus retroflexus, 240 h. A digest of the protocol:
as §1

Setting [1] is: Postemergence, 500 g ai/ha, visual rating after 13 to 15 days, scale 0 (no effect) to 100 (complete control).
Setting [2] is: Preemergence, 500 g ai/ha, scale 0 to 100.
The mark [3] stands for this setting: postemergence, 125 g ai/ha, visual rating, scale 0 (no effect) to 100 (complete control).
[4] abbreviates: preemergence, 125 g ai/ha, 0 to 100 scale, 0 is no effect, 100 is complete control.
[5] abbreviates: Postemergence, 500 g ai/ha, 0 to 100 scale, 0 no effect, 100 complete control.
The mark [6] stands for this setting: Postemergence, 2000 g ai/ha, 0 to 100 scale, 0 no effect, 100 complete control.
The mark [7] stands for this setting: Preemergence, 500 g ai/ha, visual rating, 0 to 100 scale (0 no effect, 100 complete control).
The mark [8] stands for this setting: Preemergence, 2000 g ai/ha, 0 to 100 scale, 0 no effect, 100 complete control.
Where [9] appears, read: 125 g ai/ha, 0 = no effect, 100 = complete control, preemergence.
Setting [10] is: 500 g ai/ha, visual rating, 0 = no effect, 100 = complete control, preemergence.
The mark [11] stands for this setting: postemergence, 500 g ai/ha, scale 0 to 100, 0 is no effect, 100 is complete control.
[12] abbreviates: Preemergence, 2000 g ai/ha, visual rating, 0 to 100 scale (0 no effect, 100 complete control).
The mark [13] stands for this setting: preemergence, 500 g ai/ha, visual injury, 0 to 100 scale (0 no effect, 100 complete control).
The mark [14] stands for this setting: post-emergence, Postemergence, 2000 g ai/ha, 0 to 100 scale, 0 no effect, 100 complete control, read-out: Plant response rating, Foxtail, Giant.
Setting [15] is: post-emergence, Postemergence, 2000 g ai/ha, 0 to 100 scale, 0 no effect, 100 complete control, read-out: Plant response rating, Pigweed.

For the compound `CCOC(=O)c1cccc(NC(=O)c2cc(C(C)(C)C)nn2CCF)c1` [Compound 79], in the experiment on ducksalad (visual rating, 13 to 15 days), the “Ducksalad plant response rating” value came to 80. In addition, the “Plant response rating, Barnyardgrass” value worked out at 40 in the experiment on barnyardgrass (setting [1]) and 0 in the experiment with barnyardgrass (setting [4]). The entries for the “Barnyardgrass plant response rating” value in the experiment on barnyardgrass (setting [2]) and with barnyardgrass (setting [3]) were 10 and 30, respectively. The “Plant response rating, Foxtail, Giant” value with giant foxtail (setting [5]) is 30; with giant foxtail (setting [6]) it was 40. For the same compound, the results for the “Foxtail, Giant plant response rating” value with giant foxtail (setting [7]) and with giant foxtail (setting [8]) were 10 and 40, respectively. The entries for the “Plant response rating, Pigweed” value with redroot pigweed (setting [5]) and with redroot pigweed (setting [6]) were 95 and 85, respectively. For the same compound, the “Pigweed plant response rating” value was 45 with redroot pigweed (setting [7]) and 90 with redroot pigweed (setting [8]).

`CCn1nc(C(C)(C)C)cc1C(=O)Nc1cccc(OC(C)C)c1` [Compound 273]: in the experiment with ducksalad, the “Ducksalad plant response rating” value is given as 90. Besides, in the experiment on barnyardgrass (setting [9]), the “Barnyardgrass plant response rating (0 to 100 scale)” value is 30. For the same compound, the “Plant response rating, Barnyardgrass” value in the experiment on barnyardgrass (setting [10]) is 90. The “Barnyardgrass plant response rating” value was determined as 20 in the experiment with barnyardgrass (setting [3]) and 70 in the experiment with barnyardgrass (setting [11]). For the same compound, the figures for the “Foxtail, Giant plant response rating” value with giant foxtail (setting [5]), with giant foxtail (setting [12]) and in the experiment with giant foxtail (setting [13]) were 50, 100 and 85, respectively. For the same compound, in the experiment with giant foxtail (setting [6]), the “Plant response rating, Foxtail, Giant” value was found to be 70. Further, the “Pigweed plant response rating” value in the experiment with redroot pigweed (setting [5]), in the experiment on redroot pigweed (setting [12]) and with redroot pigweed (setting [13]) was 100 throughout. Besides, in the experiment on redroot pigweed (setting [6]), the “Plant response rating, Pigweed” value came to 100.

Consider `CCn1nc(C(C)(C)C)cc1C(=O)Nc1cccc(C(=O)N2CC=CC2)c1` [Compound 286], for which, in the experiment with ducksalad, the “Ducksalad plant response rating” value worked out at 90. The “Barnyardgrass plant response rating (0 to 100 scale)” value in the experiment on barnyardgrass (setting [9]) was 30. In addition, in the experiment on barnyardgrass (setting [10]), the “Plant response rating, Barnyardgrass” value is listed as 90. Also, the “Barnyardgrass plant response rating” value in the experiment with barnyardgrass (setting [3]) and in the experiment on barnyardgrass (setting [11]) was 0 each time. The “Foxtail, Giant plant response rating” value came to 35 with giant foxtail (setting [5]), 100 in the experiment with giant foxtail (setting [12]) and 60 with giant foxtail (setting [13]). The “Plant response rating, Foxtail, Giant” value in the experiment with giant foxtail (setting [6]) is 75. The entries for the “Pigweed plant response rating” value in the experiment with redroot pigweed (setting [5]), in the experiment with redroot pigweed (setting [12]) and in the experiment with redroot pigweed (setting [13]) were 55, 95 and 85, respectively. In addition, in the experiment on redroot pigweed (setting [6]), the “Plant response rating, Pigweed” value was 85.

Take `CCOC(=O)c1ccc(F)c(NC(=O)C2CC(C(C)(C)C)=NN2CC)c1` (centres unmarked) [Compound 267, ethyl 3-[[[3-(1,1-dimethylethyl)-1-ethyl-4,5-dihydro-1H-pyrazol-5-yl]carbonyl]amino]-4-fluorobenzoate]: the pest or weed control at 1000 g/ha in the experiment on ducksalad turned out to be 0%. Further, the pest or weed control at 125 g/ha was determined as 40% in the experiment with barnyardgrass (post-emergence, postemergence, 125 g ai/ha, visual rating, scale 0 (no effect) to 100 (complete control), read-out: Barnyardgrass plant response rating) and 20% in the experiment with barnyardgrass (pre-emergence, 125 g ai/ha, 0 = no effect, 100 = complete control, read-out: Barnyardgrass plant response rating (0 to 100 scale)). In addition, the pest or weed control at 500 g/ha with barnyardgrass (post-emergence, postemergence, 500 g ai/ha, visual rating, scale 0 (no effect) to 100 (complete control), read-out: Barnyardgrass plant response rating) worked out at 90%; in the experiment on barnyardgrass (pre-emergence, 500 g ai/ha, visual rating, 0 = no effect, 100 = complete control, read-out: Plant response rating, Barnyardgrass), 70%; in the experiment on giant foxtail (post-emergence, Postemergence, 500 g ai/ha, 0 to 100 scale, 0 no effect, 100 complete control, read-out: Foxtail, Giant plant response rating) it was 30%; in the experiment with giant foxtail (pre-emergence, preemergence, 500 g ai/ha, visual injury, 0 to 100 scale (0 no effect, 100 complete control), read-out: Foxtail, Giant plant response rating), 75%; with redroot pigweed (post-emergence, Postemergence, 500 g ai/ha, 0 to 100 scale, 0 no effect, 100 complete control, read-out: Pigweed plant response rating) it was 40%; in the experiment with redroot pigweed (pre-emergence, preemergence, 500 g ai/ha, visual injury, 0 to 100 scale (0 no effect, 100 complete control), read-out: Pigweed plant response rating) it was 5%. In addition, the pest or weed control at 2000 g/ha was 55% in the experiment with giant foxtail (setting [14]); 85% with giant foxtail (pre-emergence, Preemergence, 2000 g ai/ha, visual rating, 0 to 100 scale (0 no effect, 100 complete control), read-out: Foxtail, Giant plant response rating); 60% in the experiment with redroot pigweed (setting [15]); 80% in the experiment with redroot pigweed (pre-emergence, Preemergence, 2000 g ai/ha, visual rating, 0 to 100 scale (0 no effect, 100 complete control), read-out: Pigweed plant response rating).

Turning to `CCn1nc(C(C)(C)C)cc1C(=O)Nc1cccc(C(=O)NOC)c1` [Compound 67], the “Ducksalad plant response rating” value in the experiment on ducksalad (visual rating, 13 to 15 days) came out at 80. For the same compound, the “Plant response rating, Barnyardgrass” value stood at 10 with barnyardgrass (setting [1]) and 0 with barnyardgrass (setting [4]). Also, the “Barnyardgrass plant response rating” value in the experiment on barnyardgrass (setting [2]) was found to be 80; in the experiment on barnyardgrass (setting [3]) it was 10. Moreover, the figures for the “Plant response rating, Foxtail, Giant” value with giant foxtail (setting [5]) and in the experiment on giant foxtail (setting [6]) were 10 and 20, respectively. The “Foxtail, Giant plant response rating” value in the experiment with giant foxtail (setting [7]) is listed as 0; in the experiment with giant foxtail (setting [8]), 30. The “Plant response rating, Pigweed” value in the experiment on redroot pigweed (setting [5]) was 50; with redroot pigweed (setting [6]), 85. Besides, the “Pigweed plant response rating” value in the experiment on redroot pigweed (setting [7]) amounted to 0; in the experiment on redroot pigweed (setting [8]) it was 90.

Take `CCn1nc(C(C)(C)C)cc1C(=O)Nc1cccc(C(=O)NCC(F)(F)F)c1` [Compound 43, 3-(1,1-dimethylethyl)-1-ethyl-N-[3-[[(2,2,2-trifluoroethyl)amino]carbonyl]-phenyl]-1H-pyrazole-5-carboxamide]: the pest or weed control at 1000 g/ha in the experiment with ducksalad (visual rating, 13 to 15 days) was 70%. The pest or weed control at 125 g/ha in the experiment with barnyardgrass (post-emergence, Postemergence, 125 g ai/ha, scale 0 (no effect) to 100 (complete control), read-out: Barnyardgrass plant response rating) amounted to 20%. For the same compound, the pest or weed control at 500 g/ha in the experiment with barnyardgrass (post-emergence, Postemergence, 500 g ai/ha, visual rating after 13 to 15 days, scale 0 (no effect) to 100 (complete control), read-out: Plant response rating, Barnyardgrass) came to 70%; with barnyardgrass (pre-emergence, Preemergence, 500 g ai/ha, scale 0 to 100, read-out: Barnyardgrass plant response rating), 100%; with giant foxtail (post-emergence, Postemergence, 500 g ai/ha, 0 to 100 scale, 0 no effect, 100 complete control, read-out: Plant response rating, Foxtail, Giant) it was 70%; with giant foxtail (pre-emergence, Preemergence, 500 g ai/ha, visual rating, 0 to 100 scale (0 no effect, 100 complete control), read-out: Foxtail, Giant plant response rating) it was 55%; in the experiment with redroot pigweed (post-emergence, Postemergence, 500 g ai/ha, 0 to 100 scale, 0 no effect, 100 complete control, read-out: Plant response rating, Pigweed) it was 100%; with redroot pigweed (pre-emergence, Preemergence, 500 g ai/ha, visual rating, 0 to 100 scale (0 no effect, 100 complete control), read-out: Pigweed plant response rating), 100%. For the same compound, the pest or weed control at 2000 g/ha turned out to be 70% in the experiment on giant foxtail (setting [14]); 100% in the experiment on giant foxtail (pre-emergence, Preemergence, 2000 g ai/ha, 0 to 100 scale, 0 no effect, 100 complete control, read-out: Foxtail, Giant plant response rating); 100% in the experiment on redroot pigweed (setting [15]); 100% in the experiment on redroot pigweed (pre-emergence, Preemergence, 2000 g ai/ha, 0 to 100 scale, 0 no effect, 100 complete control, read-out: Pigweed plant response rating).
